Measurements published in patent publication US8197775B2, “Detection article having fluid control film” (priority 1999, dated 2012).
Values after ≈ are worked out from the molar mass of the structure shown.

System: Escherichia coli ATCC 51813
Experiment: Minimum inhibitory concentration (MIC) test using microchannels, MUG fluorescence read-out
Assay type: cell-based
Conditions: ATCC51813, VRB media with MUG 0.5 mg/ml, 16 hours at 37° C., control tubes and microchannels
Protocol: Microchannel polyethylene films were heat embossed on a hydraulic press according to the procedure outlined in U.S. patent application Ser. No. 08/905,481. […] The channels were covered with ScotchPak #33 (3M Company) using an iron heated to 149 degrees C. (300 degrees F.), forming a series of capillary channels.
A dilution series of tetracycline was prepared in VRB media (7.0 g Bacto peptone, 3.0 g yeast extract, 1.5 g bile salts per liter) containing the fluorescent indicator methylumbelliferyl glucuronide (MUG, 0.5 mg/ml). The following tetracycline concentrations were prepared: 40, 4, 0.4, 0.04, and 0.004 micrograms/ml. Approximately 1 ml of each solution was placed in a test tube. A suspension of Escherichia coli ATCC 51813 (100 microliters of approximately 10^7 bacteria/ml) was added to each tube. A syringe was used to transfer each solution into adjacent microchannels (1.6 microliters/channel). Both the control tubes and the microchannel device were incubated for 16 hours at 37° C. After incubation the samples were observed under ultraviolet radiation.

**Q.** How did the MIC turn out when `CN(C)[C@@H]1C(O)=C(C(N)=O)C(=O)[C@@]2(O)C(O)=C3C(=O)c4c(O)cccc4[C@@](C)(O)[C@H]3C[C@@H]12` [tetracycline] was run?
**A.** Its MIC is 4 µg/mL (≈ 9 µM).
